Measurements: ChEMBL document CHEMBL1921790, “Synthesis and antimicrobial activity of brominated resorcinol dimers” (Bioorg Med Chem Lett, 2011)
In brackets after ≈: the same amount, converted by molar mass.

Legend:
Aspergillus fumigatus = assay: Antifungal activity against Aspergillus fumigatus HIC 6094 after 48 to 72 hrs by two fold serial dilution method; type: functional
Trichophyton rubrum = assay: Antifungal activity against Trichophyton rubrum IFO 9185 after 48 to 72 hrs by two fold serial dilution method; type: functional
Candida albicans = assay: Antifungal activity against Candida albicans ATCC 10231 after 24 to 72 hrs by two fold serial dilution method; type: functional
Isocitrate lyase = Isocitrate lyase (Candida albicans, UniProt Q9P8Q7); assay: Inhibition of Candida albicans isocitrate lyase after 30 mins
[1] = test system: Trichophyton mentagrophytes; assay: Antifungal activity against Trichophyton mentagrophytes IFO 40996 after 48 to 72 hrs by two fold serial dilution method; type: functional
Staphylococcus aureus = assay: Antibacterial activity against Staphylococcus aureus ATCC 6538p after 24 hrs by two fold serial dilution method; type: functional
Bacillus subtilis = assay: Antibacterial activity against Bacillus subtilis ATCC 6633 after 24 hrs by two fold serial dilution method; type: functional; settings: ATCC 6633, 24 h
Micrococcus luteus = assay: Antibacterial activity against Micrococcus luteus IFC 12708 after 24 hrs by two fold serial dilution method; type: functional; settings: IFC 12708, 24 h
Salmonella typhimurium = assay: Antibacterial activity against Salmonella Typhimurium ATCC 14028 after 24 hrs by two fold serial dilution method; type: functional, Salmonella enterica subsp. enterica serovar Typhimurium; settings: Salmonella enterica, ATCC 14028, 24 h
Proteus vulgaris = assay: Antibacterial activity against Proteus vulgaris ATCC 3851 after 24 hrs by two fold serial dilution method; type: functional; settings: ATCC 3851, 24 h
Escherichia coli = assay: Antibacterial activity against Escherichia coli ATCC 25922 after 24 hrs by two fold serial dilution method; type: functional; settings: ATCC 25922, 24 h

Sequence of Isocitrate lyase (Q9P8Q7 whole entry): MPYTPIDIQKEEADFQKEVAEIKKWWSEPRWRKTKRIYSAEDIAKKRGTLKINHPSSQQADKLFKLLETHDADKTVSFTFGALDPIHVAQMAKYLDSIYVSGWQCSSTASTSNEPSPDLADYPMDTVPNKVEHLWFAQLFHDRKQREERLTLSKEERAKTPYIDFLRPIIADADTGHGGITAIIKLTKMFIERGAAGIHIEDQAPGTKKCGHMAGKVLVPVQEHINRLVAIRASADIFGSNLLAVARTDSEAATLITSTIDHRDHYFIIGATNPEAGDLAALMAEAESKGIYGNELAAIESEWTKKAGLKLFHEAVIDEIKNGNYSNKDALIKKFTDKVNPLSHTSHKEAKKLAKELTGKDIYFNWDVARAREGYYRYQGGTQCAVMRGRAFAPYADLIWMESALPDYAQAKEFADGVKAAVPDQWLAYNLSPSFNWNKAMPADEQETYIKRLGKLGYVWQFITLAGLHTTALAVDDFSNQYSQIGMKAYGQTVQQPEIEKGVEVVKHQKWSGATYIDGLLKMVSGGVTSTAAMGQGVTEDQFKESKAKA

| Structure (SMILES) | MIC (Aspergillus fumigatus) | MIC (Trichophyton rubrum) | MIC (Candida albicans) | IC50 (Isocitrate lyase) | MIC [1] | MIC (Staphylococcus aureus) | MIC (Bacillus subtilis) | MIC (Micrococcus luteus) | MIC (Salmonella typhimurium) | MIC (Proteus vulgaris) | MIC (Escherichia coli) |
| --- | --- | --- | --- | --- | --- | --- | --- | --- | --- | --- | --- |
| O=[N+]([O-])c1cccc(C(c2ccc(O)cc2O)c2cc(Br)c(O)cc2O)c1 (configuration not stated) | > 100 µg/mL | > 100 µg/mL | 100 µg/mL (≈ 231 µM) | 69.9 µM | > 100 µg/mL | 12.5 µg/mL (≈ 28.9 µM) | 6.25 µg/mL (≈ 14.5 µM) | 12.5 µg/mL (≈ 28.9 µM) | 6.25 µg/mL (≈ 14.5 µM) | 6.25 µg/mL (≈ 14.5 µM) | > 100 µg/mL |
| Oc1ccc(C(c2cc(Br)c(O)cc2O)c2cc(Br)c(O)cc2O)cc1 | 50 µg/mL (≈ 104 µM) | 100 µg/mL (≈ 207 µM) | 50 µg/mL (≈ 104 µM) | 25.9 µM | 100 µg/mL (≈ 207 µM) | 0.78 µg/mL (≈ 1.62 µM) | 0.78 µg/mL (≈ 1.62 µM) | 0.78 µg/mL (≈ 1.62 µM) | 1.56 µg/mL (≈ 3.24 µM) | 0.78 µg/mL (≈ 1.62 µM) | > 100 µg/mL |
| Oc1cc(O)c(C(c2cc(Br)c(O)cc2O)c2c(Cl)cccc2Cl)cc1Br | 100 µg/mL (≈ 187 µM) | > 100 µg/mL | 100 µg/mL (≈ 187 µM) | 17.9 µM | 100 µg/mL (≈ 187 µM) | 6.25 µg/mL (≈ 11.7 µM) | 1.56 µg/mL (≈ 2.92 µM) | 1.56 µg/mL (≈ 2.92 µM) | 6.25 µg/mL (≈ 11.7 µM) | 1.56 µg/mL (≈ 2.92 µM) | 100 µg/mL (≈ 187 µM) |
| CC1(C)S[C@@H]2[C@H](NC(=O)[C@H](N)c3ccccc3)C(=O)N2[C@H]1C(=O)O [AMPICILLIN] | 1.56 µg/mL (≈ 4.46 µM) | 1.56 µg/mL (≈ 4.46 µM) | 0.78 µg/mL (≈ 2.23 µM) | – | 1.56 µg/mL (≈ 4.46 µM) | 0.39 µg/mL (≈ 1.12 µM) | 0.39 µg/mL (≈ 1.12 µM) | 1.56 µg/mL (≈ 4.46 µM) | 0.78 µg/mL (≈ 2.23 µM) | 0.78 µg/mL (≈ 2.23 µM) | 6.25 µg/mL (≈ 17.9 µM) |
| O=C(O)CC[N+](=O)[O-] | – | – | – | 6 µM | – | – | – | – | – | – | – |
| Oc1ccc(C(c2ccc(O)cc2O)c2cc(Br)c(O)cc2O)cc1 (configuration not stated) | > 100 µg/mL | > 100 µg/mL | > 100 µg/mL | 90.5 µM | > 100 µg/mL | 6.25 µg/mL (≈ 15.5 µM) | 3.12 µg/mL (≈ 7.74 µM) | 3.12 µg/mL (≈ 7.74 µM) | 6.25 µg/mL (≈ 15.5 µM) | 3.12 µg/mL (≈ 7.74 µM) | > 100 µg/mL |
| CCCCCC(c1ccc(O)cc1O)c1ccc(O)cc1O | > 100 µg/mL | > 100 µg/mL | > 100 µg/mL | 167 µM | > 100 µg/mL | 12.5 µg/mL (≈ 41.3 µM) | 6.25 µg/mL (≈ 20.7 µM) | 12.5 µg/mL (≈ 41.3 µM) | 12.5 µg/mL (≈ 41.3 µM) | 12.5 µg/mL (≈ 41.3 µM) | 100 µg/mL (≈ 331 µM) |
| CCCCCC(c1cc(Br)c(O)cc1O)c1cc(Br)c(O)cc1O | 12.5 µg/mL (≈ 27.2 µM) | 12.5 µg/mL (≈ 27.2 µM) | 25 µg/mL (≈ 54.3 µM) | 28 µM | 25 µg/mL (≈ 54.3 µM) | 3.12 µg/mL (≈ 6.78 µM) | 1.56 µg/mL (≈ 3.39 µM) | 1.56 µg/mL (≈ 3.39 µM) | 3.12 µg/mL (≈ 6.78 µM) | 1.56 µg/mL (≈ 3.39 µM) | 50 µg/mL (≈ 109 µM) |
| Oc1ccc(C(c2cc(Br)c(O)cc2O)c2c(Cl)cccc2Cl)c(O)c1 (configuration not stated) | > 100 µg/mL | > 100 µg/mL | > 100 µg/mL | 78.7 µM | > 100 µg/mL | 12.5 µg/mL (≈ 27.4 µM) | 6.25 µg/mL (≈ 13.7 µM) | 12.5 µg/mL (≈ 27.4 µM) | 12.5 µg/mL (≈ 27.4 µM) | 12.5 µg/mL (≈ 27.4 µM) | > 100 µg/mL |
| O=[N+]([O-])c1ccc(C(c2cc(Br)c(O)cc2O)c2cc(Br)c(O)cc2O)cc1 | > 100 µg/mL | > 100 µg/mL | > 100 µg/mL | 20.7 µM | > 100 µg/mL | 25 µg/mL (≈ 48.9 µM) | 12.5 µg/mL (≈ 24.5 µM) | 12.5 µg/mL (≈ 24.5 µM) | 25 µg/mL (≈ 48.9 µM) | 25 µg/mL (≈ 48.9 µM) | > 100 µg/mL |
| CCCCCC(c1ccc(O)cc1O)c1cc(Br)c(O)cc1O (configuration not stated) | 50 µg/mL (≈ 131 µM) | 50 µg/mL (≈ 131 µM) | 50 µg/mL (≈ 131 µM) | 46.6 µM | 50 µg/mL (≈ 131 µM) | 6.25 µg/mL (≈ 16.4 µM) | 3.12 µg/mL (≈ 8.18 µM) | 3.12 µg/mL (≈ 8.18 µM) | 3.12 µg/mL (≈ 8.18 µM) | 3.12 µg/mL (≈ 8.18 µM) | 100 µg/mL (≈ 262 µM) |
| O=[N+]([O-])c1cccc(C(c2cc(Br)c(O)cc2O)c2cc(Br)c(O)cc2O)c1 | 100 µg/mL (≈ 196 µM) | 100 µg/mL (≈ 196 µM) | 50 µg/mL (≈ 97.8 µM) | 26.8 µM | 100 µg/mL (≈ 196 µM) | 3.12 µg/mL (≈ 6.1 µM) | 1.56 µg/mL (≈ 3.05 µM) | 1.56 µg/mL (≈ 3.05 µM) | 3.12 µg/mL (≈ 6.1 µM) | 1.56 µg/mL (≈ 3.05 µM) | > 100 µg/mL |
| O=[N+]([O-])c1ccc(C(c2ccc(O)cc2O)c2cc(Br)c(O)cc2O)cc1 (configuration not stated) | > 100 µg/mL | > 100 µg/mL | > 100 µg/mL | 41.2 µM | > 100 µg/mL | 100 µg/mL (≈ 231 µM) | 50 µg/mL (≈ 116 µM) | 50 µg/mL (≈ 116 µM) | 100 µg/mL (≈ 231 µM) | 100 µg/mL (≈ 231 µM) | > 100 µg/mL |
